According to patent US9771360B2, “Cyano-substituted imidazo[1,2-A]pyridinecarboxamides and their use” (Bayer Pharma Aktiengesellschaft, priority 2014, dated 2017):

Molecular target: T1, recombinant guanylate cyclase reporter cell line (Rattus norvegicus, UniProt P19686+P20595)
T1 construct: expressed in transfected cells
T1 sequence (P20595 1-619): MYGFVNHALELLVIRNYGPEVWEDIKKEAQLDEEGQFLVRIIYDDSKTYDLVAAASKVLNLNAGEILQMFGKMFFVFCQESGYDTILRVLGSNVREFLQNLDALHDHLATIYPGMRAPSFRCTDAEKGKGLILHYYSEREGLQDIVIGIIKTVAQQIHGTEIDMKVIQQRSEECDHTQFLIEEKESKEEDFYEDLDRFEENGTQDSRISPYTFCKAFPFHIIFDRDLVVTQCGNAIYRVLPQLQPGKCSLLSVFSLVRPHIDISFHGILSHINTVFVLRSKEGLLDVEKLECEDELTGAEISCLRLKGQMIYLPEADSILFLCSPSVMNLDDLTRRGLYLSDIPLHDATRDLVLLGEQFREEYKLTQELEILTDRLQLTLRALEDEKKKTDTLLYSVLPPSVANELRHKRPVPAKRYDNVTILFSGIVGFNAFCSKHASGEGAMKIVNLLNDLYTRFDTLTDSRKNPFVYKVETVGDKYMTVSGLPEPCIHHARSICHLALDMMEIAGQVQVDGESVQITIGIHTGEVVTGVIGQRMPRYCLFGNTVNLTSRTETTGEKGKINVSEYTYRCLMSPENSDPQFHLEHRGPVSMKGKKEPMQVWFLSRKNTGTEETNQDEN
T1 sequence (P19686 1-690): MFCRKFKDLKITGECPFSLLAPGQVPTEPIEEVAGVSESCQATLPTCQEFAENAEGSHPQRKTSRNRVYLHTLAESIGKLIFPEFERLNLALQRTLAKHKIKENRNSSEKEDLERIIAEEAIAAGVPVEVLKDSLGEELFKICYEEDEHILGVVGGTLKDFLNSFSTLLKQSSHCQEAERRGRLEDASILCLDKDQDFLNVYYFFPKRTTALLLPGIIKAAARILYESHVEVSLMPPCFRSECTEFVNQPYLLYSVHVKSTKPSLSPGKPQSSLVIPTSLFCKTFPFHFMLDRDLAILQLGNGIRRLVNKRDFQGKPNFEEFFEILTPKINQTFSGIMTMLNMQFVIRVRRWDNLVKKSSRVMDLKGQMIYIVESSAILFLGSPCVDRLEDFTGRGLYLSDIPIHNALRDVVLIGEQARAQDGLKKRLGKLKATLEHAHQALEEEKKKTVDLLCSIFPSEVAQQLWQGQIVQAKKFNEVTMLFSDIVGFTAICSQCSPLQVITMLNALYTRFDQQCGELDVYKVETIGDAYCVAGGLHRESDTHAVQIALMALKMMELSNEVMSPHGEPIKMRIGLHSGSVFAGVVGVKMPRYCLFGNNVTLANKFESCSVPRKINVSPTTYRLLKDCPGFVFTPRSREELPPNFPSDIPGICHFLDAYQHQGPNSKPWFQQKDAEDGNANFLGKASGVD
Assay: Effect on a recombinant guanylate cyclase reporter cell line (B-2)
Type: cell-based
Details: MEC = minimum effective concentration; in some cases mean values from individual determinations
Method: B-2. Effect on a Recombinant Guanylate Cyclase Reporter Cell Line
The cellular activity of the compounds according to the invention is determined using a recombinant guanylate cyclase reporter cell line, as described in F. Wunder et al., Anal. Biochem. 339, 104-112 (2005).
Representative MEC values (MEC=minimum effective concentration) for the compounds of the invention are shown in the table below (in some cases as mean values from individual determinations): […]

Row | SMILES | MEC
1 | CCC(CC#N)NC(=O)c1c(C)nc2c(OCc3c(F)cccc3F)cc(C)cn12 (racemic) [Example 13, rac-N-(1-cyanobutan-2-yl)-8-[(2,6-difluorobenzyl)oxy]-2,6-dimethylimidazo[1,2-a]pyridine-3-carboxamide] | 1 µM
2 | Cc1cc(OCc2c(F)cccc2F)c2nc(C)c(C(=O)NC(C)C#N)n2c1 (single isomer, unassigned) [Example 16, ent-N-(1-Cyanoethyl)-8-[(2,6-difluorobenzyl)oxy]-2,6-dimethylimidazo[1,2-a]pyridine-3-carboxamide] | 0.3 µM
3 | Cc1cc(OCc2c(F)cccc2F)c2nc(C)c(C(=O)NCC#N)n2c1 [Example 2, N-(cyanomethyl)-8-[(2,6-difluorobenzyl)oxy]-2,6-dimethylimidazo[1,2-a]pyridine-3-carboxamide] | 0.3 µM
4 | Cc1cc(OCc2c(F)cccc2F)c2nc(C)c(C(=O)NC(C)(C#N)C3CC3)n2c1 (racemic) [Example 6, rac-N-(1-cyano-1-cyclopropylethyl)-8-[(2,6-difluorobenzyl)oxy]-2,6-dimethylimidazo[1,2-a]pyridine-3-carboxamide] | 0.1 µM
5 | Cc1cc(OCc2c(F)cccc2F)c2nc(C)c(C(=O)NCC3CCC(C#N)CC3)n2c1 (stereo not shown) [Example 12, N-[(4-cyanocyclohexyl)methyl]-8-[(2,6-difluorobenzyl)oxy]-2,6-dimethylimidazo[1,2-a]pyridine-3-carboxamide] | 0.1 µM
6 | Cc1cc(OCc2ncccc2F)c2nc(C)c(C(=O)NC(C#N)c3ccc(Cl)cc3)n2c1 (racemic) [Example 19, rac-N-[(4-chlorophenyl)(cyano)methyl]-8-[(3-fluoropyridin-2-yl)methoxy]-2,6-dimethylimidazo[1,2-a]pyridine-3-carboxamide] | 1 µM
7 | Cc1cc(OCc2c(F)cccc2F)c2nc(C)c(C(=O)NCCC#N)n2c1 [Example 9, N-(2-cyanoethyl)-8-[(2,6-difluorobenzyl)oxy]-2,6-dimethylimidazo[1,2-a]pyridine-3-carboxamide] | 0.3 µM
8 | Cc1cc(OCc2c(F)cccc2F)c2nc(C)c(C(=O)NC3(C#N)CCC3)n2c1 [Example 5, N-(1-cyanocyclobutyl)-8-[(2,6-difluorobenzyl)oxy]-2,6-dimethylimidazo[1,2-a]pyridine-3-carboxamide] | 0.03 µM

Other lines, results leading:

Row | MEC | SMILES
9 | 0.3 µM | Cc1cc(OCc2c(F)cccc2F)c2nc(C)c(C(=O)Nc3ccccc3CC#N)n2c1 [Example 35, N-[2-(cyanomethyl)phenyl]-8-[(2,6-difluorobenzyl)oxy]-2,6-dimethylimidazo[1,2-a]pyridine-3-carboxamide]
10 | 3 µM | Cc1cc(OCc2c(F)ccc(C3CC3)c2F)c2nc(C)c(C(=O)NCC3CCC(C#N)CC3)n2c1 (stereo not shown) [Example 40, N-[(4-Cyanocyclohexyl)methyl]-8-[(3-cyclopropyl-2,6-difluorobenzyl)oxy]-2,6-dimethylimidazo[1,2-a]pyridine-3-carboxamide]
11 | 1 µM | Cc1cc(OCc2c(F)cccc2F)c2nc(C)c(C(=O)NCC(N)CCC#N)n2c1 (racemic) [Example 44, rac-N-(2-Amino-4-cyanobutyl)-8-[(2,6-difluorobenzyl)oxy]-2,6-dimethylimidazo[1,2-a]pyridine-3-carboxamide]
12 | 1 µM | Cc1cc(OCc2c(F)cccc2F)c2nc(C)c(C(=O)NC(CN)CC#N)n2c1 (racemic) [Example 39, rac-N-(1-Amino-3-cyanopropan-2-yl)-8-[(2,6-difluorobenzyl)oxy]-2,6-dimethylimidazo[1,2-a]pyridine-3-carboxamide]
13 | 1 µM | COc1cc(OCc2c(F)cccc2F)c2nc(C)c(C(=O)NC(C#N)c3ccc(Cl)cc3)n2c1 (racemic) [Example 28, rac-N-[(4-chlorophenyl)(cyano)methyl]-8-[(2,6-difluorobenzyl)oxy]-6-methoxy-2-methylimidazo[1,2-a]pyridine-3-carboxamide]
